Assay [1] deals with T1, α1B Human Adrenergic Receptor (Homo sapiens, UniProt P35368).
T1 construct: The entire coding region of α1B (1563 bp); expressed in transfected cells
T1 sequence (P35368 1-520): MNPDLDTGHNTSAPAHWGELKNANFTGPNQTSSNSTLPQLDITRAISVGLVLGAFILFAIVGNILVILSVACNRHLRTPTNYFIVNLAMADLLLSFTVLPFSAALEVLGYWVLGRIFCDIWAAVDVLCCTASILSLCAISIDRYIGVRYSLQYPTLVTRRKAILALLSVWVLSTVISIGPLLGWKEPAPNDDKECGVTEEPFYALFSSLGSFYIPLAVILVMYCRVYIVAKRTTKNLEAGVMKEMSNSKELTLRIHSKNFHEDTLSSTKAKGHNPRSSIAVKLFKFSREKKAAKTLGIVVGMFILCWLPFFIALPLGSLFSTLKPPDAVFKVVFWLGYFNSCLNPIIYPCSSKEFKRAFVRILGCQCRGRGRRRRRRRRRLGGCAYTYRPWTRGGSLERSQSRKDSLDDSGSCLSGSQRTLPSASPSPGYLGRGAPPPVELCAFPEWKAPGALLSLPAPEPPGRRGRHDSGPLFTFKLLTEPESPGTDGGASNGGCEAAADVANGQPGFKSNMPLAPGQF
Put plainly: Radioligand binding, [3H]prazosin, cloned human α1B adrenergic receptor. As to conditions: for pKi alpha-1 1b: LM(tk−) cell membranes. In a few lines: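 Membranes from stably transfected LM(tk−) cells, resuspended in 50 mM Tris-HCl, 1 mM MgCl2, 0.1% ascorbic acid, pH 7.5, were incubated with 0.5 nM [3H]prazosin for 20 min at 37° C. Nonspecific binding defined with 10 μM phentolamine; bound ligand separated by GF/B filtration.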

A further assay has as its target T2, α2A receptor (Homo sapiens, UniProt P08913).
T2 construct: host or cells: LM(tk-) cells, line L-α2A
T2 sequence (P08913 1-465): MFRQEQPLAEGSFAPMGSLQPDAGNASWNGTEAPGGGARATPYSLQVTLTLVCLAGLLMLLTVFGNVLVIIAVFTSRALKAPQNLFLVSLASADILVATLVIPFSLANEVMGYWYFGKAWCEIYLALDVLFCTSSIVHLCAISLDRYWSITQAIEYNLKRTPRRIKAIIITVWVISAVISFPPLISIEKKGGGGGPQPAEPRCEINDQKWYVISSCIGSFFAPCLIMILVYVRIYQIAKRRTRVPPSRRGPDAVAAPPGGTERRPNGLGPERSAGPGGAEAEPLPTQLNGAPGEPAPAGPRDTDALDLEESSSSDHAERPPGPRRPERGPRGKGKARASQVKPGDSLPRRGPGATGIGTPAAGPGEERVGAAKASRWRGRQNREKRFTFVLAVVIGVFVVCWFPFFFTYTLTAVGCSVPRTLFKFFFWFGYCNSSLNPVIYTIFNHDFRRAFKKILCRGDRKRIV
Put plainly: Competition binding, [3H]rauwolscine, human α2A receptor. The settings on record: for pKi alpha-2 2a: LM(tk−) cells. In a few lines: (§1)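 Equilibrium displacement of [3H]rauwolscine (0.5 nM) measured on membranes from stably transfected LM(tk−) lines, one per α2 subtype, in glycylglycine buffer at pH 7.6. Nonspecific binding set by 10 μM phentolamine; separation by filtration.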

For the next assay, the target named is T3, α2B receptor (Homo sapiens, UniProt P18089).
T3 construct: host or cells: LM(tk-) cells, line L-NGC-α2B
T3 sequence (P18089 1-450): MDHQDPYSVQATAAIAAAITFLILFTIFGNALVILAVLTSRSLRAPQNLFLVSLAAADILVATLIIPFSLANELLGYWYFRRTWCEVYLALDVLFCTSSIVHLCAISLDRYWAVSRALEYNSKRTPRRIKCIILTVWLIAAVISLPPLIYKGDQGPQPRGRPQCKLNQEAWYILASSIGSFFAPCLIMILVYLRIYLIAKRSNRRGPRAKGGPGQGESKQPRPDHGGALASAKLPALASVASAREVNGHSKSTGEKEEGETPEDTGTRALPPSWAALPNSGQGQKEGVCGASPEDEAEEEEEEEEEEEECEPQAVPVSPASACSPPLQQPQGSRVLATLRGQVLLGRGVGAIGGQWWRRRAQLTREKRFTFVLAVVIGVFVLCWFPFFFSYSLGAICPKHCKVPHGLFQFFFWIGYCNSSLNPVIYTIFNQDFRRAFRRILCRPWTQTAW
Briefly: Competition binding, [3H]rauwolscine, human α2B receptor. The settings on record: for pKi alpha-2 2b: LM(tk−) cells. An outline of the steps: as §1

For a further assay, the target named is T4, α2C receptor (Homo sapiens, UniProt P18825).
T4 construct: host or cells: LM(tk-) cells, line L-α2C
T4 sequence (P18825 1-462): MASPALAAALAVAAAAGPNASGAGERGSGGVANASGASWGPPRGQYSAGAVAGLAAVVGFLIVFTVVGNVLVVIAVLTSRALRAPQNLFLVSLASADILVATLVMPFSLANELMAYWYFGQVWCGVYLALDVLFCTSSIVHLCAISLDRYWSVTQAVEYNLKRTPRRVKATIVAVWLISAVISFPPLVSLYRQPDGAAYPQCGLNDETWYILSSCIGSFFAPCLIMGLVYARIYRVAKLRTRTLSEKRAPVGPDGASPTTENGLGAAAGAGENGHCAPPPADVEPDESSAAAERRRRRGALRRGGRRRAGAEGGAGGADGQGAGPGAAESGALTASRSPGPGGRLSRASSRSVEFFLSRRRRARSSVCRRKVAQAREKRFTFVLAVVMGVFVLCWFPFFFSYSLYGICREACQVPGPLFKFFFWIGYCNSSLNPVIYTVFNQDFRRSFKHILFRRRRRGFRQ
Briefly: Competition binding, [3H]rauwolscine, human α2C receptor. The settings on record: for pKi alpha-2 2c: LM(tk−) cells. An outline of the steps:
as §1

Setting [2] is: cloned human receptor in LM(tk-) cell membranes, SEM and n in lines below, read-out: pKi alpha-1 1b (converted).
Where [3] appears, read: [3H]rauwolscine, LM(tk-) cell line L-α2A, SEM and n in lines below, read-out: pKi alpha-2 2a (converted).
Setting [4] is: [3H]rauwolscine, LM(tk-) cell line L-NGC-α2B, SEM and n in lines below, read-out: pKi alpha-2 2b (converted).
Setting [5] is: [3H]rauwolscine, LM(tk-) cell line L-α2C, SEM and n in lines below, read-out: pKi alpha-2 2c (converted).
[6] abbreviates: cloned human receptor, LM(tk-) cell membranes, mean, read-out: PKi alpha-1 1b (converted).
[7] abbreviates: [3H]rauwolscine, human α2A receptor.
[8] abbreviates: [3H]rauwolscine, human α2B receptor.
Where [9] appears, read: [3H]rauwolscine, human α2C receptor.

Where a name gives a salt, the structure may show the parent alone. Read-outs that look alike come from different tables or passages of the source.

Consider `CCC1=C(C(=O)NCCCN2CCC(c3ccccc3)CC2)C(c2ccc([N+](=O)[O-])cc2)C(C(=O)OC)=C(C)N1` (stereo not shown) [Example 74, 2-Ethyl-1,4-dihydro-5-methoxycarbonyl-6-methyl-4-(4-nitro)phenyl-3-(N-(3-(4-phenylpiperidin-1-yl)propyl)) carboxamidopyridine hydrochloride hydrate], for which the Ki was 19.1 nM in assay [1] (setting [2]), 58.9 nM on α2A receptor (setting [3]), 89.1 nM at α2B receptor (setting [4]) and 23.4 nM at α2C receptor (setting [5]).
With `COC(=O)C1=C(C)NC(CCCCN)=C(C(=O)NCCCN2CCC(c3ccccc3)(c3ccccc3)CC2)C1c1ccc([N+](=O)[O-])cc1` (stereo not shown) [Example 170, 2-(4-Aminobutyl)-1,4-dihydro-5-methoxycarbonyl-6-methyl-4-(4-nitrophenyl)-3-{N-[3-(4,4-diphenylpiperidin-1-yl)propyl]}carboxamidopyridine], the Ki in assay [1] (setting [6]) is 105 nM; at α2A receptor, 6170 nM; at α2B receptor (PKi alpha-2 2b), 8710 nM; on α2C receptor (PKi alpha-2 2c) it was 4900 nM.
Regarding `COC(=O)C1=C(C)NC(C)=C(C(=O)NCCCN2CCC(c3ccccc3)CC2)C1c1ccc(C)cc1` (stereo not shown) [Example 31, 1,4-Dihydro-3-methoxycarbonyl-2,6-dimethyl-4-(4-methylphenyl)-5-(N-(3-(4-phenylpiperidin-1-yl)propyl)carboxamido)pyridine], the Ki in assay [1] (setting [2]) was 20.4 nM; on α2A receptor (setting [3]) it was 158 nM; on α2B receptor (setting [4]), 138 nM; at α2C receptor (setting [5]) it was 52.5 nM.
With `CCC1=C(C(N)=O)C(c2ccc([N+](=O)[O-])cc2)C(C(=O)NCCCN2CCC(C(=O)OC)(c3ccccc3)CC2)=C(COCCN)N1` (stereo not shown) [Example 234, 2-((2-Aminoethyl)oxy)methyl-5-carboxamido-6-ethyl-1,4-dihydro-3-(N-(3-(4-methoxycarbonyl-4-phenylpiperidin-1-yl)propyl)) carboxamido-4-(4-nitro)phenylpyridine], the Ki is 1290 nM in assay [1] (setting [6]); 1230 nM on α2A receptor ([3H]rauwolscine, human receptor, LM(tk-) cell lysates, mean, read-out: PKi alpha-2 2a (converted)); 4900 nM on α2B receptor ([3H]rauwolscine, human receptor, LM(tk-) cell lysates, mean, read-out: PKi alpha-2 2b (converted)); 832 nM on α2C receptor ([3H]rauwolscine, human receptor, LM(tk-) cell lysates, mean, read-out: PKi alpha-2 2c (converted)).
For `CCC1=C(C(=O)NC)C(c2ccc([N+](=O)[O-])cc2)C(C(=O)NCCCN2CCC(c3ccccc3)(c3ccccc3)CC2)=C(COCCN)N1` (stereo not shown) [Example 225, 2-((2-Aminoethyl)oxy)methyl-6-ethyl-1,4-dihydro-5-N-methylcarboxamido-4-(4-nitro)phenyl-3-(3-(N-(4,4-diphenylpiperidin-1-yl)propyl))carboxamidopyridine], the Ki in assay [1] (setting [6]) is 501 nM; at α2A receptor, 2040 nM; on α2B receptor (PKi alpha-2 2b), 2510 nM; on α2C receptor (PKi alpha-2 2c), 417 nM.
With `CCC1=C(C(=O)NN2CCOCC2)C(c2ccc([N+](=O)[O-])cc2)C(C(=O)NCCCN2CCC(c3ccccc3)(c3ccccc3)CC2)=C(COC)N1` (stereo not shown) [Example 248, 6-Ethyl-1,4-dihydro-2-((methyl)oxy)methyl-5-N-(morpholin-4yl)carboxamido-4-(4-nitro)phenyl-3-(N-(3-(4,4-diphenylpiperidin-1-yl)propyl))carboxamidopyridine], the Ki is 1510 nM in assay [1] (cloned human α1B receptor, LM(tk-) cell membranes, read-out: PKi alpha-1 1b (converted)); 1000 nM on α2A receptor ([3H]rauwolscine, human α2A receptor, LM(tk-) cells, read-out: PKi alpha-2 2a (converted)); 1150 nM at α2B receptor ([3H]rauwolscine, human α2B receptor, LM(tk-) cells, read-out: PKi alpha-2 2b (converted)); 525 nM on α2C receptor ([3H]rauwolscine, human α2C receptor, LM(tk-) cells, read-out: PKi alpha-2 2c (converted)).
Regarding `CCOC(=O)C1(c2ccccc2)CCN(CCCNC(=O)C2=C(COCCN)NC(CC)=C(C(=O)OC)C2c2ccc([N+](=O)[O-])cc2)CC1` (stereo not shown) [Example 197, 2-[(2-Aminoethoxy)methyl]-3-{N-[3-(4-ethoxycarbonyl-4-phenylpiperidin-1-yl)propyl]}carboxamido-1,4-dihydro-6-ethyl-5-methoxycarbonyl-4-(4-nitrophenyl) pyridine], the Ki in assay [1] (setting [6]) is 148 nM; at α2A receptor, 1480 nM; on α2B receptor (PKi alpha-2 2b) it was 2340 nM; on α2C receptor (PKi alpha-2 2c), 513 nM.
The corresponding values for `CCNC(=O)C1=C(CC)NC(CC)=C(C(=O)NCCCN2CCC(C(=O)OCC)(c3ccccc3)CC2)C1c1ccc([N+](=O)[O-])cc1` (stereo not shown) [Example 182, 2,6-Diethyl-1,4-dihydro-3-{N-[3-(4-ethoxycarbonyl-4-phenylpiperidin-1-yl)propyl]}carboxamido-5-(N-ethyl)carboxamido-4(4-nitrophenyl)pyridine] are 1120 nM, 2190 nM, 912 nM and 1150 nM.
On to `CCOC(=O)C1=C(CNCCCN2CCC(c3ccccc3)(c3ccccc3)CC2)NC(C)=C(C(=O)OC)C1c1ccc([N+](=O)[O-])cc1.Cl.O` (stereo not shown) [Example 90, 3-Ethoxycarbonyl-1,4-dihydro-5-methoxycarbonyl-6-methyl-4-(4-nitro)phenyl-2-(N-(3-(4,4,-diphenylpiperidin-1-yl)propyl)amino)methylpyridine, hydrochloride hydrate], for which the “pKi alpha-1 1b” value in assay [1] (cloned human α1B receptor) was found to be 6.87. Further, the “pKi alpha-2 2a” value on α2A receptor (setting [7]) is given as 6.13. Further, the “pKi alpha-2 2b” value on α2B receptor (setting [8]) is recorded as 6.04. The “pKi alpha-2 2c” value at α2C receptor (setting [9]) is on record as 6.79.
As to `COC(=O)C1=C(C)NC2=C(C(=O)N(CCCN3CCC(c4ccccc4)(c4ccccc4)CC3)C2)C1c1ccc([N+](=O)[O-])cc1.Cl.O` (stereo not shown) [Example 91, 1,4,7,7-Tetrahydro-3-methoxycarbonyl-6-methyl-5-oxo-4-(4-nitrophenyl)-6-(3-(4,4-diphenylpiperidin-1-yl)) propylpyrrolo[3,4-b]pyridine, hydrochloride hydrate], the “pKi alpha-1 1b” value in assay [1] (cloned human α1B receptor) is 6.54. In addition, on α2A receptor (setting [7]), the “pKi alpha-2 2a” value turned out to be 6.06. The “pKi alpha-2 2b” value at α2B receptor (setting [8]) stood at 6.00. For the same compound, the “pKi alpha-2 2c” value on α2C receptor (setting [9]) came out at 6.31.

The values are drawn from patent publication US6608086B2, “Dihydropyridines and new uses thereof” (Synaptic Pharmaceutical Corporation, priority 1993, dated 2003).
